The test system of the experiment is Tetranychus urticae. In words: Test for confirming effect on Tetranychus urticae (kidney bean leaves in petri dish, sprinkling; survival numbers of next generation). Type of experiment: in vivo. How it is done: Test for Confirming Effect on Tetranychus urticae
Ten Tetranychus urticae female imagoes were inoculated on kidney bean leaves placed in each petri dish on the day before chemical solution treatment.
A flowable agent containing the compound A was diluted with water containing RABIDEN 3S diluted 5000 times to prepare chemical solutions A containing the compound A at twice concentrations described in Table 3, respectively.
A preparation containing the compound B or a flowable agent containing the compound B was diluted with water containing RABIDEN 3S diluted 5000 times to prepare chemical solutions B containing the compound B at twice concentrations described in Table 3, respectively.
{Preparations Used in Test Examples and Containing the Compound B}
• Test numbers a and b: hexythiazox: Nissorun wettable powder (produced by Nippon Soda Co., Ltd.) • Test numbers c and d: abamectin: Agri-Mek (produced by Syngenta Japan K.K.) • Test numbers e and f: fenpyroximate: DANITRON flowable (produced by NIHON NOHYAKU CO., LTD.) • Test numbers g and h: acetamiprid: MOSPILAN water soluble powder (produced by Nippon Soda Co., Ltd.) • Test number i: propargite: Omite wettable powder (produced by NIHON NOHYAKU CO., LTD.)
A mixed solution obtained by mixing the chemical solution A and the chemical solution B in an equivalent amount was sprinkled on a petri dish containing kidney bean leaves on which Tetranychus urticae was inoculated at 2 mg per 1 cm^2 with a rotatory sprinkling tower (AB mixture application plot).
The chemical solution A and the chemical solution B were twice diluted with the water containing RABIDEN 3S diluted 5000 times to obtain a chemical solution A′ and a chemical solution B′, respectively.
The chemical solution A′ was sprinkled on another petri dish containing kidney bean leaves on which Tetranychus urticae was inoculated at 2 mg per 1 cm^2 with a rotatory sprinkling tower (A single application plot). The Chemical solution B′ was sprinkled on another petri dish containing kidney bean leaves on which Tetranychus urticae was inoculated at 2 mg per 1 cm^2 with a rotatory sprinkling tower (B single application plot).
Then, the petri dishes on which the chemical solutions were sprinkled were placed in a thermostatic chamber at a temperature of 25° C. and a humidity of 60%. All the imagoes were removed after 3 days elapsed from the sprinkling. Then, the petri dishes from which the imagoes were removed were placed in a thermostatic chamber at a temperature of 25° C. and a humidity of 60%. When 10 days elapsed from the sprinkling, the survival numbers of the next generation were investigated, and the effectivenesses were calculated. Effectiveness (%)=(Cn−Tn)/Cn×100 • Cn: Survival numbers of next generation in non-treatment plot after 10 days • Tn: Survival numbers of next generation in treatment plot after 10 days
To show the degree of a synergistic effect, the “effectiveness expectation” was calculated based on the Colby method. When the effectiveness is higher than the “effectiveness expectation”, it is determined that there is a synergistic effect. Expectation of effectiveness (%)(E)=X+Y−XY/100 • X: measurement of effectiveness in B single application plot (%) • Y: measurement of effectiveness in A single application plot (%)

For the compound `C[C@@H]1[C@@H](c2ccc(Cl)cc2)SC(=O)N1C(=O)NC1CCCCC1` [hexythiazox], the “Effectiveness Found” value (hexythiazox 1 ppm, B single application plot, 10 days after sprinkling) worked out at 58%.
As to `C#CCOS(=O)OC1CCCCC1Oc1ccc(C(C)(C)C)cc1` (centres unmarked) [propargite], the “Effectiveness Found” value (propargite 5 ppm, B single application plot, 10 days after sprinkling) is on record as 24%.
In the case of `Cc1nn(C)c(Oc2ccccc2)c1C=NOCc1ccc(C(=O)OC(C)(C)C)cc1` [fenpyroximate], the “Effectiveness Found” value (fenpyroximate 2.5 ppm, B single application plot, 10 days after sprinkling) is 67%.
Consider `C/C(=N\C#N)N(C)Cc1ccc(Cl)nc1` [acetamiprid], for which the “Effectiveness Found” value (acetamiprid 100 ppm, B single application plot, 10 days after sprinkling) worked out at 5%.
Turning to `CCN(Oc1cc(Br)cc(C(F)(F)F)c1)C(=O)NC(C)(C)C(=O)NCC(F)(F)F` [Compound (II), 2-{3-[3-bromo-5-(trifluoromethyl)phenoxy]-3-ethylureido}-2-methyl-N-(2,2,2-trifluoroethyl)propanamide], the “Effectiveness Found” value reads like this: (Compound (II) 2.3 ppm, A single application plot, next generation 10 days after sprinkling) 52%; (Compound (II) 4.7 ppm, A single application plot, next generation 10 days after sprinkling) 74%.
With abamectin, the “Effectiveness Found” value (abamectin 0.07 ppm, B single application plot, 10 days after sprinkling) is on record as 42%.
In the case of `CCCOc1cc(C(F)(F)F)ccc1O[C@H]1C[C@H]2CCC[C@@H](C1)N2Oc1ccc(C(F)(F)F)cn1` [acynonapyr], for the setting “acynonapyr 0.4 ppm, B single application plot, 10 days after sprinkling”, the “Effectiveness Found” value was determined as 58%.

The values are drawn from US12465049B2, “Pest control method, and pest control agent composition and pest control agent set” (Nippon Soda Co., Ltd., priority 2019, dated 2025).
